Literature values as cited in patent US11723919B2, “Composition or combination comprising anionic dietary supplement and 25-hydroxy vitamin D” (Phibro Animal Health Corporation, priority 2020, dated 2023).

Test system: dairy cows
Conditions: administration pre- or post-calving; Guo et al. 2018

SMILES: C=C1CC[C@H](O)C/C1=C/C=C1\CCC[C@]2(C)[C@@H]([C@H](C)CCCC(C)(C)O)CC[C@@H]12 [25-hydroxy vitamin D, 25-hydroxy vitamin D3]
- effect on milk yield: no effect
